Experimental data: article PMC9212912 (Structure (London, England : 1993), 2022)

Test system: SARS-CoV-2 (Delta variant, pangolin linage B.1.617.2)
Assay: microbe, parasite or virus in culture
Assay type: cell-based

Row | SMILES | Inhibition of SARS-CoV-2 infection in Calu-3 cells (0.01 µM) [%] | inhibition at 0.01 µM (Severe acute respiratory syndrome coronavirus 2, Calu-3, 24 h, read-out: Inhibition of SARS-CoV-2 infection in Calu-3 cells) [%]
1 | Cc1sc2c(c1C)C(c1ccc(Cl)cc1)=N[C@@H](CC(=O)OC(C)(C)C)c1nnc(C)n1-2 [JQ1] | 72 | –
2 | Cc1sc2c(c1C)C(c1ccc(Cl)cc1)=N[C@@H](CC(=O)Nc1ccc(O)cc1)c1nnc(C)n1-2 [OTX015] | – | 69
